Legend:
[1] = system: murine thymoma ITT(1) 75NS E3 (Ly-2^+); assay: 30 minute inhibition assay ([^3 H]-thymidine incorporation), E3; assay type: cell-based; conditions: 0.5 h
Excerpt: (§1) The cell lines examined in this study included the (Ly-2^+) murine thymoma ITT(1) 75NS E3 variant (E3) (Smyth et al, J. Natl Cancer Inst. 1986 76 503-510), the (Ly-2^-, TFR^-) lymphoma EL4 (Horowitz et al, Science 1968 160 533-535), the (TFR^+) human cell line CEM (Foley et al Cancer 1965 18 522-529) and the (250-30.6^+) human cell line COLO 205. Cells were maintained in vitro in Dulbecco's Modified Eagle's medium (DME) or RPMI 1640 medium (Flow Laboratories, Sydney, Australia), supplemented with 10% heat inactivated newborn calf serum (Flow), 2 mM glutamine (Commonwealth Serum Laboratories, Sydney, Australia); 100 ug/ml streptomycin (Glaxo, Melbourne, Australia) and 100 I.U./ml penicillin (Commonwealth Serum Laboratories). The E3 tumour was maintained in vivo by serial passage into (C57BL/6×BALB/c)F1 mice (CBF1 mice). Cells from the ascites fluid were washed and centrifuged (400 g×5 min) twice in phosphate buffered saline (PBS), pH7.3, resuspended in PBS and injected subcutaneously (s.c.) into the abdominal wall of mice; these developed into palpable tumours prior to treatment. Mice were subjected to a series of intraveneous (i.v.) or intratumour (i.t.) treatments and the subsequent size of tumours was measured daily with a caliper square, measuring along the perpendicular axes of the tumours. Data was recorded as mean tumour size (product of two diameters ± standard error).
(§2) (b) 30 minute inhibition assay: 200 ul of cells (2-5×10^6 /ml) were collected in sterile Eppendorf tubes, resuspended in sterile drug or conjugate and mixed for 30 min at 37° C. Cells were then centrifuged (400 g×5 min), resuspended in growth medium and 100 ul aliquots were seeded into a microtitre plate using duplicate wells for each sample before an incubation period of 16-24 hours. After the incubation period in both these assays, 50 ul of growth medium containing 1 uCi of [^3 H]-thymidine (specific activity=5 Ci/mmol; Amersham) was added and the plates incubated for 2-4 hours. Cells were then harvested and dried, and individual samples were separated and counted on a beta scintillation counter.

CBA mice = assay: Acute toxicity, single i.v. injection in CBA mice; assay type: in vivo
Procedure: (§3) Groups of 10-20 CBA mice were given a single i.v. injection of various doses of Ida or Ida-anti-Ly-2.1 and the survival of mice was recorded against the dose of drug delivered in mg/kg. The organs of these mice were removed and weighed prior to formalin fixation and staining by haematoxylin and eosin.
(§4) For acute toxicity experiments groups of 10 CBA (Ly2.1^+) mice were given a single injection of various doses of either Ida, Ida-anti-Ly-2.1 or Ida-anti-TFR. […] Ida-MoAb conjugates were not tested to an LD50 dose.

[2] = Acute toxicity, single i.v. injection in CBA mice; assay type: in vivo; conditions: mouse, in vivo, iv; Table 2; Ida (mg/kg)
Procedure: as §3, §4

human cell line CEM [3] = assay: 24 hour inhibition assay ([^3 H]-thymidine incorporation), CEM; assay type: cell-based
Excerpt: as §1, with “The E3 tumour was maintained in vivo by serial passage into (C57BL/6×BALB/c)F1 mice (CBF1 mice). Cells from the ascites fluid were washed and centrifuged (400 g×5 min) twice in phosphate buffered saline (PBS), pH7.3, resuspended in PBS and injected subcutaneously (s.c.) into the abdominal wall of mice; these developed into palpable tumours prior to treatment.” left out
(§5) (b) 30 minute inhibition assay: 200 ul of cells (2-5×10^6 /ml) were collected in sterile Eppendorf tubes, resuspended in sterile drug or conjugate and mixed for 30 min at 37° C. […] Cells were then harvested and dried, and individual samples were separated and counted on a beta scintillation counter.

(L3T4^+) lymphoma EL4 [4] = assay: 24 hour inhibition assay ([^3 H]-thymidine incorporation), EL4; assay type: cell-based; conditions: Table 3; EL4, 24 hr; read-out: Mean I.D.50 values (Ida (M))
Procedure: (a) 24 hour inhibition assay: 100 ul of cells (2-5×10^6 /ml) were added to a flat-bottomed microtitre plate and incubated for 1 hour at 37° C. Free Idarubicin (Ida) (dissolved in PBS) and Ida-MoAb conjugates were filtered aseptically and dilutions were performed in sterile PBS; 50 ul of free Ida or conjugate were added to the cells using duplicate wells for each sample; control wells received 50 ul of PBS and the cells were cultured at 37° C., 7% CO2 for 24 hours.
as §5, with “counter. Incorporation of [^3 H]-thymidine was expressed as a percentage inhibition in incorporation of controls.” for “counter.”
(§6) The cell lines examined in this study included the (Ly-2^+) murine thymoma ITT(1)75NS E3 variant (E3), the (L3T4^+) lymphoma EL4 (Horowitz et al, Science 1968 160 533-535), the human colon carcinoma Colo 205 (Semple et al, Cancer Res. 1978 38 1345-1355) and the (Ly-2^-, L3T4^-) human T cell leukemia CEM (Foley et al, Cancer 1965 18 522-529). […] Mice were then subjected to a series of i.v. treatments and the size of the tumours was measured daily with a caliper square, measuring along the perpendicular axes of the tumours. […]

tumour cell lines tested = assay: 24 hour assay, tumour cell lines tested (Example 2); assay type: cell-based
Procedure: as §2, with “(b) 30 minute inhibition assay: 200 ul of cells (2-5×10^6 /ml) were collected in sterile Eppendorf tubes, resuspended in sterile drug or conjugate and mixed for 30 min at 37° C.” left out

COLO 205 [5] = assay: 24 hour inhibition assay ([^3 H]-thymidine incorporation), COLO 205; assay type: cell-based; conditions: Homo sapiens
Procedure: The cell lines examined in this study included the (Ly-2^+) murine thymoma ITT(1) 75NS E3 variant (E3) (Smyth et al, J. Natl Cancer Inst. 1986 76 503-510), the (Ly-2^-, TFR^-) lymphoma EL4 (Horowitz et al, Science 1968 160 533-535), the (TFR^+) human cell line CEM (Foley et al Cancer 1965 18 522-529) and the (250-30.6^+) human cell line COLO 205. […] Mice were subjected to a series of intraveneous (i.v.) or intratumour (i.t.) treatments and the subsequent size of tumours was measured daily with a caliper square, measuring along the perpendicular axes of the tumours. Data was recorded as mean tumour size (product of two diameters ± standard error). […]
as §5, with “counter. Incorporation of [^3 H]-thymidine was expressed as a percentage inhibition in incorporation of controls. […]” for “counter.”

solid E3 tumour = assay: Intratumour treatment of E3 tumours in CBF1 mice; assay type: in vivo; conditions: days 5 and 6, total Ida=30 ug
Procedure: The E3 tumour was maintained in vivo by serial passage into (C57BL/6×BALB/c)F1 mice (CBF1 mice). Cells from the ascites fluid were washed and centrifuged (400 g×5 min) twice in phosphate buffered saline (PBS), pH7.3, resuspended in PBS and injected subcutaneously (s.c.) into the abdominal wall of mice; these developed into palpable tumours prior to treatment. Mice were subjected to a series of intraveneous (i.v.) or intratumour (i.t.) treatments and the subsequent size of tumours was measured daily with a caliper square, measuring along the perpendicular axes of the tumours. Data was recorded as mean tumour size (product of two diameters ± standard error).

(L3T4^+) lymphoma EL4 [6] = assay: 30 minute inhibition assay ([^3 H]-thymidine incorporation), EL4; assay type: cell-based; conditions: 0.5 h; Table 3; EL4, 30 min; read-out: Mean I.D.50 values (Ida (M))
Procedure: as §2, with “counter. Incorporation of [^3 H]-thymidine was expressed as a percentage inhibition in incorporation of controls.” for “counter.”
as §6, with “522-529). Cells were maintained in vitro as described in Example 1.” for “522-529).”

human cell line CEM [7] = assay: cells; assay type: cell-based; conditions: 0.5 h, Table 3, 30 min, read-out: Mean I.D.50 values (Ida (M))
Procedure: (§7) The cell lines examined in this study included the (Ly-2^+) murine thymoma ITT(1) 75NS E3 variant (E3) (Smyth et al, J. Natl Cancer Inst. 1986 76 503-510), the (Ly-2^-, TFR^-) lymphoma EL4 (Horowitz et al, Science 1968 160 533-535), the (TFR^+) human cell line CEM (Foley et al Cancer 1965 18 522-529) and the (250-30.6^+) human cell line COLO 205. […] Mice were subjected to a series of intraveneous (i.v.) or intratumour (i.t.) treatments and the subsequent size of tumours was measured daily with a caliper square, measuring along the perpendicular axes of the tumours. Data was recorded as mean tumour size (product of two diameters ± standard error).
as §5
(§8) Data was recorded as mean tumour size (product of two diameters ± standard error).

COLO 205 [8] = assay: 30 minute inhibition assay ([^3 H]-thymidine incorporation), COLO 205; assay type: cell-based; conditions: Homo sapiens, 0.5 h
Procedure: as §7, §5, §8

[9] = system: murine thymoma ITT(1) 75NS E3 (Ly-2^+); assay: 24 hour inhibition assay ([^3 H]-thymidine incorporation), E3; assay type: cell-based; conditions: Mus musculus
Excerpt: as §1, with “The E3 tumour was maintained in vivo by serial passage into (C57BL/6×BALB/c)F1 mice (CBF1 mice). Cells from the ascites fluid were washed and centrifuged (400 g×5 min) twice in phosphate buffered saline (PBS), pH7.3, resuspended in PBS and injected subcutaneously (s.c.) into the abdominal wall of mice; these developed into palpable tumours prior to treatment.” left out
as §5

CBA mice (organs) = assay: Histopathology after single i.v. dose; assay type: in vivo; conditions: 1.0 mg/kg i.v.
Procedure: as §3

COLO 205 xenografts = assay: i.v. treatment of COLO 205 xenografts in nude mice; assay type: in vivo, nude (nu/nu) mice; human tumour; conditions: total 275 ug Ida
Excerpt: Injection of 2×10^6 cells subcutaneously into the abdominal wall yielded a palpable lump within 4 days (approx. 0.1 cm^2).

E3 thymoma = assay: i.v. treatment of s.c. E3 thymoma in CBF1 mice (2.0×10^6 cells); assay type: in vivo; conditions: 20 ug Ida, days 4 and 5
Excerpt: as §1, with “error). […]” for “error).”

E3 and CEM cell lines = system: E3 and CEM cell lines
Procedure: as §2

## CC(=O)[C@]1(O)Cc2c(O)c3c(c(O)c2[C@@H](O[C@H]2C[C@H](N)[C@H](O)[C@H](C)O2)C1)C(=O)c1ccccc1C3=O [Ida, 4-demethoxy-daunorubicin]
[1]; E3, 30 min, compared with COLO 205, Example 1, read-out: dose response to free drug (I.D.50)
  IC50: 9.8e-07 M
[1]; Mus musculus, E3, incubated 30 minutes, Example 1, read-out: I.D.50 (the source's name)
  IC50: 5.2e-07 M
[1]; Mus musculus, Table 3, E3, 30 min, read-out: Mean I.D.50 values (Ida (M))
  IC50: 1.8e-07 M
CBA mice; Table 2, Ida (mg/kg)
  L.D.10: 0.75 mg/kg
CBA mice; mg/kg of Ida, single i.v.
  LD10: 0.75 mg/kg
CBA mice; single i.v. injection, all mice
  initial weight loss (of original weight): up to 25%
[2]
  LD50: 3 mg/kg
Human cell line CEM [3]; Table 1, 24 hour assay, read-out: Mean I.D.50 (50% inhibition in [^3 H]-thymidine incorporation of controls)
  IC50: 2.2e-07 M
Human cell line CEM [3]; Table 3, 24 hr, read-out: Mean I.D.50 values (Ida (M))
  IC50: 9e-08 M
(L3T4^+) lymphoma EL4 [4]
  IC50: 6.6e-08 M
Tumour cell lines tested
  activity of free Ida relative to Ida-MoAb conjugates: 4-10 times
COLO 205 [5]; Table 3, Colo 205, 24 hr, read-out: Mean I.D.50 values (Ida (M))
  IC50: 8e-08 M
COLO 205 [5]; target cell line COLO 205, Example 1, read-out: I.D.50 (the source's name)
  IC50: 6e-08 M
Solid E3 tumour
  anti-tumour activity / effect on tumour growth: not affecting tumour growth
(L3T4^+) lymphoma EL4 [6]
  IC50: 1.6e-07 M
Human cell line CEM [7]
  IC50: 2.2e-07 M
COLO 205 [8]; COLO 205, 30 min, Example 1, read-out: dose response to free drug (I.D.50)
  IC50: 9.2e-07 M
COLO 205 [8]; Table 3, Colo 205, 30 min, read-out: Mean I.D.50 values (Ida (M))
  IC50: 1.2e-07 M
[9]; Table 1, E3, 24 hour assay, read-out: Mean I.D.50 (50% inhibition in [^3 H]-thymidine incorporation of controls)
  IC50: 1.2e-07 M
[9]; Table 3, E3, 24 hr, read-out: Mean I.D.50 values (Ida (M))
  IC50: 7.8e-08 M
CBA mice (organs); 15 days
  spleen histopathology: atrophy of the white pulp in the spleen
CBA mice (organs); data not shown
  cardiac histopathology: some hypertrophy of cardiac muscle fibres
COLO 205 xenografts
  mice survived: 2 out of 10
E3 thymoma
  tumour reduction: up to 50%
E3 thymoma; of 10 mice
  mice died: 3
E3 and CEM cell lines
  cytotoxicity of free Ida compared with conjugates: more cytotoxic to both E3 and CEM than Ida-anti-Ly-2.1 and Ida-anti-TFR respectively

— patent publication US5798097A, “Immunogobulin conjugates” (Pharmacia & Upjohn S.p.A., priority 1987, dated 1998)
